Assay results: patent US8933029B2, “Antimicrobial and anti-inflammatory peptides” (Carrus Capital Corporation, priority 2001, dated 2015)
Marks after values point to notes of the source that are not given here. Ends that are not written are not given here.

Legend:
[1] = system: oxazolone contact hypersensitivity (ear inflammation); experiment: Oxazolone contact hypersensitivity model; assay type: in vivo, CD-1 mice; settings: Dosage of 0.1%, applied to ear one hour after oxazolone challenge, ear punch weight after 24 h, 70% EtOH/30% propylene glycol vehicle
Procedure: Briefly, a 3.0% (w/v) solution of oxazolone in acetone/corn oil (5:1) is applied topically to the skin on the shaved abdomens of mice of approximately the same weight and approximately the same age on day 0. […] Twenty-four hours later a dermal biopsy punch of the treated ear is taken and weighed.
CD-1 mice are treated with 3% oxazolone (Sigma) (30 mg/ml) in corn oil:acetone on a shaved abdomen. All solutions are sonicated for 7 minutes. Five days later, the mice are challenged with a 2% oxazolone (20 mg/ml) in acetone on the left ear, with the right ear being left untreated (control). One hour after challenge, the candidate peptide in a 70% EtOH/30% propylene glycol formulation (vehicle) was applied to the left ear, with the right ear being left untreated. After 24 h, 7 mm ear punches are taken from each ear of the mice. The ear punches are placed on a scale and the difference between the treated and untreated ears were compared. The percent inhibition of inflammation was calculated by comparing the mean of each treated group to the control group. The positive control is hydrocortisone (a known anti-inflammatory agent). Most of the indolicidin peptides inhibited inflammation as well as hydrocortisone.

TPA-induced ear edema = experiment: TPA ear edema model; settings: for Topical Dose (% change vs. vehicle) 0.1%: topical 0.1%; for Topical Dose (% change vs. vehicle) 0.1% / Topical Dose (% change vs. vehicle) 1.0% / Topical Dose (% change vs. vehicle) 5 0%: ear biopsy weight six hours after TPA; for Topical Dose (% change vs. vehicle) 1.0%: topical 1.0%; for Systemic Dose (% change vs. vehicle) 5 mg/kg: systemic 5 mg/kg
IFNγ = experiment: Inhibition of cytokine production in PHA-activated PBLs (ELISA); assay type: cell-based; settings: human PBLs, 10 μg/ml PHA, 48 hours, supernatant ELISA
Procedure: (§1) Briefly, human PBLs are collected from a subject and plated at 10^6 cells/ml in serum free lymphocyte growth medium, stimulated with 10 μg/ml phytohemagglutinin (PHA) in the presence or absence of the candidate peptide. The PBLs are incubated at 37° C. at 5% CO2 for 48 h, at which point the supernatants were collected. An ELISA is performed on the supernatants to detect a cytokine of interest (e.g., IL-1, TNF-α, IFN-γ) and the cells are incubated for another 72 h to measure proliferation (see, e.g., Sigusch et al., J. Periodontol. 69:1098, 1998).
(§2) Human peripheral blood lymphocytes (PBLs) were collected from a healthy adult […] and plated at 10^6 cells/ml in serum free lymphocyte growth media in a 96-well plate. The PBLs were stimulated with 10 μg/ml PHA in the presence or absence of test sample and incubated at 37° C. at 5% CO2 for 48 hours. Collected and pooled supernatants were stored at −20° C., then assayed with commercially available ELISA kits (Endogen and Biosource) and assayed for viability with LDH (Bochringer Mannheim). The cells remaining after supernatant removal were returned to the incubator and proliferation was determined at 72 hours by using AlamarBlue (Alamar Bioscience). Compounds were tested at 1, 10, 100 and 1000 μg/ml. The peptides were effective at inhibiting cytokine production and PBL proliferation (Table 4), which indicates these peptides can function as anti-inflammatory agents.

IL-10 = experiment: as above; assay type: cell-based; settings: human PBLs, 10 μg/ml PHA, 48 hours, supernatant ELISA
Procedure: as §1, §2

IL-12 = experiment: as above; assay type: cell-based; settings: human PBLs, 10 μg/ml PHA, 48 hours, supernatant ELISA
Procedure: as §1, §2

IL-1α = experiment: as above; assay type: cell-based; settings: human PBLs, 10 μg/ml PHA, 48 hours, supernatant ELISA
Procedure: as §1, §2

IL-2 = experiment: as above; assay type: cell-based; settings: human PBLs, 10 μg/ml PHA, 48 hours, supernatant ELISA
Procedure: as §1, §2

IL-4 = experiment: as above; assay type: cell-based; settings: human PBLs, 10 μg/ml PHA, 48 hours, supernatant ELISA
Procedure: as §1, §2

IL-6 = experiment: as above; assay type: cell-based; settings: human PBLs, 10 μg/ml PHA, 48 hours, supernatant ELISA
Procedure: as §1, §2

TNFα = experiment: as above; assay type: cell-based; settings: human PBLs, 10 μg/ml PHA, 48 hours, supernatant ELISA
Procedure: as §1, §2

[2] = formulated in 50% ethanol/5 mM lactate buffer (*)
[3] = topical 5 0%, formulated in 50% ethanol/5 mM lactate buffer (*)

C[C@]12CCC(=O)C=C1CC[C@@H]1[C@@H]2[C@@H](O)C[C@@]2(C)[C@H]1CC[C@]2(O)C(=O)CO [Hydrocortisone, hydrocortisone, reference compound]
% Inhibition of Inflammation [1]: 84.92%

CC[C@H]1OC(=O)[C@H](C)[C@@H](O[C@H]2C[C@@](C)(OC)[C@@H](O)[C@H](C)O2)[C@H](C)[C@@H](O[C@@H]2O[C@H](C)C[C@H](N(C)C)[C@H]2O)[C@](C)(O)C[C@@H](C)C(=O)[C@H](C)[C@@H](O)[C@]1(C)O [Erythromycin, erythromycin, reference compound]
Topical Dose (% change vs. vehicle) 0.1% (TPA-induced ear edema; [2]): −20* %
Topical Dose (% change vs. vehicle) 1.0% (TPA-induced ear edema; [2]): −67* %
Topical Dose (% change vs. vehicle) 5 0% (TPA-induced ear edema; [3]): −87* %

H-LRFLKW(Aib)WRFLKL-CN [Peptide 11J105CN]
Topical Dose (% change vs. vehicle) 0.1% (TPA-induced ear edema; formulated in 95% ethanol): −4%
Topical Dose (% change vs. vehicle) 1.0% (TPA-induced ear edema; formulated in 95% ethanol): −51%

RLVVWVVWRRX-OH [Peptide 11F110]
Topical Dose (% change vs. vehicle) 0.1% (TPA-induced ear edema; [2]): −45* %
Topical Dose (% change vs. vehicle) 1.0% (TPA-induced ear edema; [2]): −83* %
Topical Dose (% change vs. vehicle) 5 0% (TPA-induced ear edema; [3]): −87* %

H-RILRWVWRILR-CN (H-RILRWVWRILR-{CN}) [Peptide 11J115CN]
Topical Dose (% change vs. vehicle) 0.1% (TPA-induced ear edema; formulated in 95% ethanol): −1%
Topical Dose (% change vs. vehicle) 1.0% (TPA-induced ear edema; formulated in 95% ethanol): −57%

H-GWRFLKLAWRFLKLRR-OH [Peptide 11J136]
Topical Dose (% change vs. vehicle) 0.1% (TPA-induced ear edema; formulated in 95% ethanol): −12%
Topical Dose (% change vs. vehicle) 1.0% (TPA-induced ear edema; formulated in 95% ethanol): −54%

R L W V V V V W R R (RLWVVVVWRR-{CN}) [Peptide 11F65CN]
Systemic Dose (% change vs. vehicle) 5 mg/kg (TPA-induced ear edema): −15%
Topical Dose (% change vs. vehicle) 1.0% (TPA-induced ear edema; formulated in 95% ethanol): −94%

W R L L K L A L R L L K W (WRLLKLALRLLKW-{CN}) [Peptide 11J44CN]
Systemic Dose (% change vs. vehicle) 5 mg/kg (TPA-induced ear edema): −32%
Topical Dose (% change vs. vehicle) 1.0% (TPA-induced ear edema; formulated in 95% ethanol): −88%

L R F L K W A F R L W K L (LRFLKWAFRLWKL-{CN}) [Peptide 11J45CN]
Topical Dose (% change vs. vehicle) 1.0% (TPA-induced ear edema; formulated in 95% ethanol): −69%

W (Dab) W W (Dab) P (Dab) W (Dab) W P (Dab) W [Peptide 11J68CN]
Topical Dose (% change vs. vehicle) 1.0% (TPA-induced ear edema; [2]): −55* %
Topical Dose (% change vs. vehicle) 5 0% (TPA-induced ear edema; [3]): −85* %

R L W V W W V W (RLWVWWVW-{CN}) [Peptide 11F11CN]
Topical Dose (% change vs. vehicle) 0.1% (TPA-induced ear edema; [2]): −49* %
Topical Dose (% change vs. vehicle) 1.0% (TPA-induced ear edema; [2]): −75* %
Topical Dose (% change vs. vehicle) 1.0% (TPA-induced ear edema; formulated in 95% ethanol): −87%

ILRWVWWVWRRK-NH2 [Peptide 11F4CN, I L R W V W W V W R R K]
Topical Dose (% change vs. vehicle) 1.0% (TPA-induced ear edema; formulated in 95% ethanol): −55%

I L Q W P W W P W Q Q Q (ILQWPWWPWQQQ-{CN}) [Peptide 11B38CN]
Topical Dose (% change vs. vehicle) 1.0% (TPA-induced ear edema; formulated in 95% ethanol): −8%
Topical Dose (% change vs. vehicle) 5 0% (TPA-induced ear edema; topical 5.0%, formulated in 95% ethanol): −51%

RLWVWWVWRRK-NH2 [Peptide 11F12CN, R L W V W W V W R R K]
IC50 IFNγ (IFNγ): 250 µg/mL
IC50 IL-10 (IL-10): 30 µg/mL
IC50 IL-12 (IL-12): 120 µg/mL
IC50 IL-1α (IL-1α): 500 µg/mL
IC50 IL-2 (IL-2): 570 µg/mL
IC50 IL-4 (IL-4): 325 µg/mL
IC50 IL-6 (IL-6): 140 µg/mL
IC50 TNFα (TNFα): 68 µg/mL
% Inhibition of Inflammation [1]: 86.50%
Topical Dose (% change vs. vehicle) 1.0% (TPA-induced ear edema; formulated in 95% ethanol): −56%

R L L V W W V L R R (RLLVWWVLRR-{CN}) [Peptide 11F82CN]
Topical Dose (% change vs. vehicle) 1.0% (TPA-induced ear edema; formulated in 95% ethanol): −62%

H-ILRWVWRILR-CN (H-ILRWVWRILR-{CN}; not fully specified) [Peptide 11J131CN]
Topical Dose (% change vs. vehicle) 0.1% (TPA-induced ear edema; formulated in 95% ethanol): −20%
Topical Dose (% change vs. vehicle) 1.0% (TPA-induced ear edema; formulated in 95% ethanol): −43%
